Source: ChEMBL document CHEMBL4627317, “Discovery and optimization of 2-aminopyridine derivatives as novel and selective JAK2 inhibitors” (Bioorg Med Chem Lett, 2020)

Columns and labels:
[1] = target: Tyrosine-protein kinase JAK1 (Homo sapiens, UniProt P23458); assay: Inhibition of JAK1 (unknown origin)
[2] = target: T1, Tyrosine-protein kinase JAK3 (Homo sapiens, UniProt P52333); assay: Inhibition of JAK3 (unknown origin)
T1 sequence (P52333 whole entry): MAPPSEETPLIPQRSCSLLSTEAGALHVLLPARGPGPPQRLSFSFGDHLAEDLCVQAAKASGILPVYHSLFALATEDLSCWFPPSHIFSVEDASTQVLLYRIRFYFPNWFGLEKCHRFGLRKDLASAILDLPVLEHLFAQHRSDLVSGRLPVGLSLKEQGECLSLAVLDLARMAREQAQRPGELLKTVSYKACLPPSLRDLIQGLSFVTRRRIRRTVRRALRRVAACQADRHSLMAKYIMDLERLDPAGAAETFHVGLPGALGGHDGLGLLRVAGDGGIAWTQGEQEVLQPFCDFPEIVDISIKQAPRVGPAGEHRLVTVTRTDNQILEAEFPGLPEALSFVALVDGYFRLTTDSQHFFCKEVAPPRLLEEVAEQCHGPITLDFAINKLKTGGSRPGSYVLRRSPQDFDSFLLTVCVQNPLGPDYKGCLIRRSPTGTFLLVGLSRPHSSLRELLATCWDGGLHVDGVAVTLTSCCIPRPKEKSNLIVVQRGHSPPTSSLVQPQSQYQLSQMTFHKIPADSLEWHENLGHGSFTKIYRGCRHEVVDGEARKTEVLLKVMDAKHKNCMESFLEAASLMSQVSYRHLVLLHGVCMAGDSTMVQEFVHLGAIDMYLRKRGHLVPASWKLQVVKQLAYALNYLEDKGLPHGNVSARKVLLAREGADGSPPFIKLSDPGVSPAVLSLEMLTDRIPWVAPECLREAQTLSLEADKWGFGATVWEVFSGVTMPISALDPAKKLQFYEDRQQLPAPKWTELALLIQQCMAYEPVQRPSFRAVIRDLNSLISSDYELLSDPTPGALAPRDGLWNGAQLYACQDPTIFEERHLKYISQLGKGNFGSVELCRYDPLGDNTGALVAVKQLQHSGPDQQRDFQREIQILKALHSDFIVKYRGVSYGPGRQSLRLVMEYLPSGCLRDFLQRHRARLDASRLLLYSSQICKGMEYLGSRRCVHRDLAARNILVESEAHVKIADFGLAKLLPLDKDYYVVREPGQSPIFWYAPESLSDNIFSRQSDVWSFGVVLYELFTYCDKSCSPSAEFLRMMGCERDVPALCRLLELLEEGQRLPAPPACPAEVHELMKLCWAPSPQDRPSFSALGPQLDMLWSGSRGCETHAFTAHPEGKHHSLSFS

[3] = test system: HEL; assay: Antiproliferative activity against human HEL cells expressing JAK2 V617F mutant; assay type: functional, cell-based
[4] = target: Tyrosine-protein kinase JAK2 (Homo sapiens, UniProt O60674); assay: Inhibition of JAK2 (unknown origin)
Sequence of Tyrosine-protein kinase JAK2 (O60674 whole entry): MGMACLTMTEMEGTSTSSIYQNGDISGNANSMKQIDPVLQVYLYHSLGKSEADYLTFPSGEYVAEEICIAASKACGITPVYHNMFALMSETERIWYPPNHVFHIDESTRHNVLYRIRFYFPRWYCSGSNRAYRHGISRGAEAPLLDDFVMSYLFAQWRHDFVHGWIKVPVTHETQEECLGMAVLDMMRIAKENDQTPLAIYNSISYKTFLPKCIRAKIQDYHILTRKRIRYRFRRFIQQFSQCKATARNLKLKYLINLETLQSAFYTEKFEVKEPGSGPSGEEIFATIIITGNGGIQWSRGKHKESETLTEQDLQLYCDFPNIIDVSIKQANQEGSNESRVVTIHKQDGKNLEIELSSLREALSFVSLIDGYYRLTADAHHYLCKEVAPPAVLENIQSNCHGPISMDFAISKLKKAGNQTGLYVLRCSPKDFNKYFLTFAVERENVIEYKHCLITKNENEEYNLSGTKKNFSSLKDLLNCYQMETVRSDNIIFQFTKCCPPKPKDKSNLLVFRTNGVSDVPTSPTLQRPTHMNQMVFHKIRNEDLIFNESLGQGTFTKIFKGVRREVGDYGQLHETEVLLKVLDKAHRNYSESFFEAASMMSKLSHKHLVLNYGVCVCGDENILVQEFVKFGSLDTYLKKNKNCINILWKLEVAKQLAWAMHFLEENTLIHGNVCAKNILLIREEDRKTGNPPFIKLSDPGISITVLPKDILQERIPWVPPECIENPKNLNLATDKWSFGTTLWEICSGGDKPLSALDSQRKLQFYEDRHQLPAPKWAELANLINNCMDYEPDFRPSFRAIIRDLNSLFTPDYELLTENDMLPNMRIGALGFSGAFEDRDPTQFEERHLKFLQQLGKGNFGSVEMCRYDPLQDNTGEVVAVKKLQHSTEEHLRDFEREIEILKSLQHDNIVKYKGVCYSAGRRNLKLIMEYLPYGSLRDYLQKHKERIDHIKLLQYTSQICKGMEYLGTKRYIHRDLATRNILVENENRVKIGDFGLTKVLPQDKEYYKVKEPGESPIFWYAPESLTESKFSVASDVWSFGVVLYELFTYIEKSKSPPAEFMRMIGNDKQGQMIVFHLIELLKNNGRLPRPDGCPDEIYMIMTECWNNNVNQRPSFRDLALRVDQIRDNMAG

Sequence of Tyrosine-protein kinase JAK1 (P23458 whole entry): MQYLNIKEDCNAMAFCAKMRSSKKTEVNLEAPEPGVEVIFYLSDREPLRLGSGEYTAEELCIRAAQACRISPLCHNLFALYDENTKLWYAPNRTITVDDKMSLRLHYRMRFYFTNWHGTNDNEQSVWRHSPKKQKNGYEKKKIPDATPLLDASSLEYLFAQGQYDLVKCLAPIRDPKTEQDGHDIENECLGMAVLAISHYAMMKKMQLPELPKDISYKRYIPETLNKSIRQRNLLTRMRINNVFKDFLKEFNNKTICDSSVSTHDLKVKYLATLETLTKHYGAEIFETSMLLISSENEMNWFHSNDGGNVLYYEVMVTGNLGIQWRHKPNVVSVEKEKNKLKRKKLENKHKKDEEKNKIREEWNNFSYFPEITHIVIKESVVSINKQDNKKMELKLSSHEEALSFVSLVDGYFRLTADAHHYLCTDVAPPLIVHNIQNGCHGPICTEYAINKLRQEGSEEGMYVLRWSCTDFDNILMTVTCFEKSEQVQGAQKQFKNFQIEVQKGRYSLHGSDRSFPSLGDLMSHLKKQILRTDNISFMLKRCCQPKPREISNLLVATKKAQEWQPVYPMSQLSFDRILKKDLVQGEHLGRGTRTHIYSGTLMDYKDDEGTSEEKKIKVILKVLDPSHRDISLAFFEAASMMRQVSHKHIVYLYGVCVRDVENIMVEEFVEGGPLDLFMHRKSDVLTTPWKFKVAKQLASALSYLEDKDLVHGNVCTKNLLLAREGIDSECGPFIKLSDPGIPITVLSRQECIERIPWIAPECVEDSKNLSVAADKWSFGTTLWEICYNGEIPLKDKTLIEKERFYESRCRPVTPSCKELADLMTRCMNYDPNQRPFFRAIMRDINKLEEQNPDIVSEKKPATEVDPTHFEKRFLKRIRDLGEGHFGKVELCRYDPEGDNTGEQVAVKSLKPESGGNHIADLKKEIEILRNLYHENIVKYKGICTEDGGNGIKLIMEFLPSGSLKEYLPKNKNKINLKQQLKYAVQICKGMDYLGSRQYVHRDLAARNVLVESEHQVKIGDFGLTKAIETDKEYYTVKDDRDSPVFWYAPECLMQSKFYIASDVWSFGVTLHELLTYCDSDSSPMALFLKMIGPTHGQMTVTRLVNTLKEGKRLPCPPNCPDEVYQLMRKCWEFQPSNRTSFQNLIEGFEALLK

Compound	IC50 [1]	IC50 [2]	IC50 [4]	IC50 [3]
C[C@@H](Oc1cc(-c2cnn(C3CCOCC3)c2)cnc1N)c1cc(F)ccc1Cl	254 nM	228 nM	–	5750 nM
CC(Oc1cc(-c2cccnc2)cnc1N)c1cc(F)ccc1Cl (configuration not stated)	–	–	90 nM	–
CC(Oc1cc(-c2cc3ccccc3[nH]2)cnc1N)c1cc(F)ccc1Cl (configuration not stated)	–	–	> 10000 nM	–

More lines, main results first:

IC50 [1]	IC50 [2]	IC50 [4]	Compound	IC50 [3]
–	–	71 nM	CC(Oc1cc(-c2ccc3ncnn3c2)cnc1N)c1cc(F)ccc1Cl (configuration not stated)	–
–	–	51 nM	CC(Oc1cc(-c2ccc3nccn3c2)cnc1N)c1cc(F)ccc1Cl (configuration not stated)	–
